Structures are written as SMILES.

For assay [1], the system named is SSTR5-tGFP. The assay is described as follows: Receptor internalization in U2OS-transfected cells (SSTR5-tGFP). The format is cell-based, human. Particulars: 7 h, high-content imaging, n = 3, method: percentage of activity relative to SST28 10^−6 M. How it is done: Compounds were tested at five concentrations (10^−5, 10^−6, 10^−7, 10^−8, 10^−9 M) in comparison to untreated cells.
SST agonists were added to U2OS recombinant cell lines in OptiMeM medium (Life technologies 51985-034, Monza, Italy) for 3 h (SSTR2, SSTR3) or 7 h (SSTR5) (n = 3). After formaldehyde fixation, nuclei were stained using DAPI (2 µg/mL), and the fluorescence was measured with BD Pathway 855 High-Content Bioimager from Becton Dickinson. The receptor internalization was calculated using AttoVision 1.6 Software. Approximately 500 cells per field were analyzed. […]
(Invitrogen, Carlsbad, CA). Stable transfectants were selected in the presence of 500 µg/ml G-418. […]
% picric acid in phosphate buﬀer (pH 6.9) for 30 minutes at room temperature (RT). […]
3.2. U2OS human cell lines transfected with human receptors (SSTR2-tGFP, SSTR3-tGFP,
Compounds were tested at ﬁve d iﬀerent concentrations (10-5, 10-6, 10-7, 10-8, 10^-9 M) in comparison to untreated cells.
U2OS recombinant cell lines were obtained from Innoprot (Derio, Spain). […] Nuclei were stained using DAPI (2 μg/ml) and the ﬂuorescence was measured using a BD Pathway 855 High-Content Bioimager from Becton Dickinson. The receptor internalization was calculated using AttoVision Software. […]
Agonist activity of test compounds was calculated relatively to positive control

The target of assay [2] is T1, SSTR2 (Homo sapiens, UniProt P30874).
T1 construct: expressed in transfected cells
The assay is described as follows: SSTR2 phosphorylation, Western blot with phosphosite-specific antibodies, HEK293-transfected. The format is cell-based. The conditions noted are these: HEK293 stably expressing SSTR2, agonist 5 min 37 °C. How it is done:
Western blot analysis was performed as previously described.
Next, the activation of human SSTRs induced by SSAs was tested by Western blot using phosphosite-specific antibodies directed against the following residues: S341/pS343 for SSTR2; S337/T341 for SSTR3; T333 for SSTR5 [31].
4.1. Western blot analysis
Western blot analysis was performed as previously described.7–9 Brieﬂy, HEK293 cells stably expressing the human somatostatin receptors were seeded onto poly-L-lysine-coated 60 mm dishes and grown to 90 % confluency. […]
PierceTM HA epitope tag antibody beads (Thermo Scientific, Rockford, USA) were used to enrich HA-tagged somatostatin receptors or wheat germ lectin-agarose beads for no-tagged somatostatin receptors. To elute proteins from the beads, the samples were incubated in SDS sample buffer for 20 min at 60°C. Supernatants were separated from the beads, loaded on 8% SDS polyacrylamide gels and immunoblotted onto nitrocellulose membranes afterwards. After blocking, membranes were incubated with phosphorylation state-speciﬁc somatostatin receptor antibodies: pS337/pT341-SST3 (7TM0357A), […]
Antibodies GmbH, Jena, Germany) at a dilution of 1:1000 at 4°C overnight. Membranes were incubated in HRP-linked secondary antibody for 2 hours, followed by detection using a chemiluminescence system (90 mM p-coumaric-acid, 250 mM luminol, 30% […]
according to the manufacturer’s instructions.
On the technique in general: In western blotting, separated proteins are transferred to a membrane and probed.

T1 sequence (P30874 whole entry): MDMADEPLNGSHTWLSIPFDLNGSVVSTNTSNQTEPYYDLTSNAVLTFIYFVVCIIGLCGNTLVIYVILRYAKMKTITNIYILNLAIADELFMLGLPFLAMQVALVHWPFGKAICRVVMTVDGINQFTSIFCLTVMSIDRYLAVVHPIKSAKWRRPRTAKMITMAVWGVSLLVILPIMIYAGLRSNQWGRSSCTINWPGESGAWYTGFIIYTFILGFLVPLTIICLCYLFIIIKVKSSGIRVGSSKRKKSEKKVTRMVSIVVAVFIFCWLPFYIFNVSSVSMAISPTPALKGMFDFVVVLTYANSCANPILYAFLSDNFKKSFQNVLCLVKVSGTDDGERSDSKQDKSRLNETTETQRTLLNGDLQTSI

As for `COc1cc2cccc(OC)c2cc1C[C@H]1NC(=O)[C@H](Cc2ccc(O)cc2)NC(=O)[C@@H]2C[C@@H](OC(=O)NCCN)CN2C(=O)[C@H](Cc2ccccc2)NC(=O)[C@H](Cc2ccc(OCc3ccccc3)cc2)NC(=O)[C@H](CCCCN)NC1=O` [ITF2984, Cyclo[Tyr(Bn)-Phe-Pro(4-OCONH(CH2)2NH2)-Tyr-3,8-diMeONal-Lys]], the “Receptor internalization in U2OS-transfected cells, SSTR5, at 10^−5 M” value in assay [1] (10^−5 M) was 34.6. Moreover, in assay [1] (10^−6 M), the “Receptor internalization in U2OS-transfected cells, SSTR5, at 10^−6 M (value in brackets)” value is 42.0. Further, the “Phosphorylation SSTR sites (HEK293-transfected): SSTR2—PS341/S343” value in assay [2] is given as “++”.

The record behind these values is article PMC10340464, “Identification of a Novel SSTR3 Full Agonist for the Treatment of Nonfunctioning Pituitary Adenomas” (Cancers, 2023).
